From US9216183B2, “Topical treatment for chemotherapy induced eyelash loss or hypotrichosis using prostamide F2 alpha agonists” (ALLERGAN, INC., priority 2002, dated 2015)
“And” between values parts separate entries of the source, which are not always exact repeats. Equal entries are not always repeated.

How the values were obtained:
[1] = test system: eyelashes of subjects with chemotherapy-induced hypotrichosis; assay: GEA / ESQ Domain 2 responder analysis, 1-year clinical study, chemotherapy-induced hypotrichosis; assay type: in vivo, human
Description: The full 12-month study consisted of 2 distinct 6-month treatment periods, treatment period 1 (TP1) and treatment period 2 (TP2). Eligible post-chemotherapy subjects were randomly assigned in a 3:1 ratio to receive bimatoprost or vehicle for TP1. In TP2, the subjects were either maintained on or switched to bimatoprost treatment. The primary efficacy endpoint was the proportion of treatment responders at month 4 based on a composite endpoint, defined by: a) at least a 1-grade improvement from baseline in the GEA score, and b) at least a 3-point improvement from baseline in the total score for Domain 2 of the ESQ. The GEA is an investigator assessment of eyelash prominence and the ESQ score is patients own perception of their eyelashes. A one-year, multicenter, randomized, double-masked, vehicle-controlled study. Adult post-chemotherapy and idiopathic eyelash hypotrichosis subjects were enrolled based on their score of 1 or 2 on a four point ordinal Global Eyelash Assessment (GEA) scale, and in addition having a low score on a PRO measure associated with 'psychological impact' of the condition, a domain-2 of the Eyelash Satisfaction Questionnaire (ESQ). The study involved two treatment periods of six months each. In the first treatment period, subjects for both populations were randomized 3:1 for QD bimatoprost: vehicle treatment. In the second 6-month treatment period, all subjects were moved to bimatoprost treatment, except for a group of bimatoprost treated idiopathic hypotrichosis subjects (n=55) who were switched to vehicle to investigate the effect of drug discontinuation. The study included 9 visits over the 12-month treatment period. The primary end point was the proportion of responders within each treatment group based on a composite measure of GEA and ESQ Domain-2 (investigator assessed eyelash prominence and subject's assessment of 'psychological impact' related to eyelashes) at month-4. This multicenter, double-masked, randomized, parallel-group study included two 6-month treatment periods. Subjects with idiopathic hypotrichosis were randomized to 3 treatment groups: 1) treatment period 1 (TP1) and TP2: bimatoprost; 2) TP1: bimatoprost; TP2: vehicle; and 3) TP1: vehicle; TP2: bimatoprost. Subjects with chemotherapy-induced hypotrichosis were randomized to 2 treatment groups: 1) TP1: bimatoprost or vehicle; and 2) TP2: bimatoprost. The primary endpoint was a composite of at least a 1-grade improvement in investigator-assessed Global Eyelash Assessment (GEA), and at least a 3-point improvement in subject-reported Eyelash Satisfaction Questionnaire (ESQ) Domain 2 (self-perceived confidence, attractiveness, and professionalism) at month 4. Secondary measures included digitally assessed eyelash characteristics (i.e., eyelash length, fullness, and darkness). Idiopathic hypotrichosis subjects were randomized to 3 treatment arms in a 2:1:1 ratio: bimatoprost during both treatment periods; vehicle in TP1 and bimatoprost in TP2; and bimatoprost in TP1 and vehicle in TP2. Chemotherapy-induced hypotrichosis subjects were randomized in a 3:1 ratio to receive bimatoprost during both treatment periods or vehicle in TP1 followed by bimatoprost in TP2. Male or female subjects at least 18 years of age who met these criteria were eligible for inclusion in the study: a score of 1 or 2 on the clinician-graded global eyelash assessment (“GEA”); a score of 1 (very much disagree) or 2 (disagree) on each of 3 items (16 [confidence], 19 [attractiveness], and 18 [professionalism]) on the subject-assessed eyelash satisfaction questionnaire (“esq”); best-corrected visual acuity (“bcva”) score equivalent to a […] acuity of 20/100 or better in each eye; and intraocular pressure (“iop”) 20 mm hg or less in each eye. […]

[2] = test system: eyelashes of subjects with idiopathic hypotrichosis; assay: Digital image analysis of upper eyelash length, thickness, darkness, idiopathic hypotrichosis; assay type: in vivo, human; conditions: for Upper eyelash length, mean % change from baseline / Upper eyelash length, mean value / Upper eyelash thickness, mean % change from baseline / Upper eyelash thickness, mean value / Upper eyelash darkness, mean % change from baseline / Upper eyelash darkness, mean value: Bim/Veh group (n = 60); for Upper eyelash darkness, mean % change from baseline / Upper eyelash darkness, mean percent change from baseline: negative = darker; for Upper eyelash darkness, mean value: scale 0 black to 255 white
Method: Secondary efficacy measures were based on digital image analysis (DIA) of eyelash characteristics: upper eyelash length (millimeters [mm]), thickness (mm^2), and darkness (intensity units). For darkness, a negative value in terms of change from baseline indicated darker eyelashes. Upper eyelash characteristics of length, thickness, and darkness were determined by a validated DIA method. The reliability and reproducibility of DIA have been verified within the acceptance criteria of 0.05% or less of mean coefficient of variance. The principal variables for the secondary efficacy assessments are: change from baseline in upper eyelash length (mm), average progressive eyelash thickness (mm^2), and eyelash darkness (intensity units) at months 4, 6, 10, and 12 or early termination. Descriptive statistics of the raw value at baseline and percent change from baseline at follow-up visits were summarized by treatment group for each principal measure of the 3 secondary variables of eyelash characteristics. Between-group comparisons were performed using a van Elteren test stratified by hypotrichosis etiology.

[3] = postchemotherapy, Month 4, listed as Bimatoprost
[4] = postchemotherapy, Month 4, listed as bimatoprost
[5] = postchemotherapy, Month 12, bimatoprost throughout
[6] = Month 10 (vehicle since month 6)
[7] = Month 12 (vehicle since month 6)
[8] = Month 4, all bimatoprost TP1 (n = 179)
[9] = Month 4, all bimatoprost TP1 (n = 179), listed as Bimatoprost
[10] = Month 6, all bimatoprost TP1 (n = 179)
[11] = Month 6, group treated up to 12 months with bimatoprost
[12] = Month 12, group treated up to 12 months with bimatoprost

CCNC(=O)CCC/C=C\C[C@@H]1[C@@H](/C=C/[C@@H](O)CCc2ccccc2)[C@H](O)C[C@@H]1O [Bim 0.03%, bimatoprost]
GEA response rate (FIG. 9) ([1]; chemotherapy-induced hypotrichosis, duration of the trial): about 80%
Primary composite endpoint responders (≧1-grade GEA and ≧3-point ESQ Domain 2 improvement) ([1]; postchemotherapy, Month 1): (6.3%)
Primary composite endpoint responders (≧1-grade GEA and ≧3-point ESQ Domain 2 improvement) ([1]; postchemotherapy, Month 2): (22.9%)
Responders with ≧1-grade increase in GEA score ([1]; postchemotherapy, Month 4): 72.9%
Responders with ≧2-grade increase in GEA score ([1]; postchemotherapy, Month 4): 36.5%
Responders with ≧3-point increase in ESQ Domain 2 ([1]; postchemotherapy, Month 4): 40.6%
Primary composite endpoint responders (≧1-grade GEA and ≧3-point ESQ Domain 2 improvement) [1, 3]: 37.5%
Responders with ≧1-grade increase in GEA score [1, 3]: 72.9%
Primary composite endpoint responders (≧1-grade GEA and ≧3-point ESQ Domain 2 improvement) [1, 4]: 37.5%
Responders with ≧1-grade increase in GEA score [1, 4]: > 70% and 72.9%
Primary composite endpoint responders (≧1-grade GEA and ≧3-point ESQ Domain 2 improvement) ([1]; postchemotherapy, Month 4, listed as bimatoprost 0.03%): 37.5%
Responders with ≧1-grade increase in GEA score ([1]; postchemotherapy, Month 6): 80.2%
Responders with ≧2-grade increase in GEA score ([1]; postchemotherapy, Month 6): 45.8%
Responders with ≧3-point increase in ESQ Domain 2 ([1]; postchemotherapy, Month 6): 47.9%
Primary composite endpoint responders (≧1-grade GEA and ≧3-point ESQ Domain 2 improvement) ([1]; postchemotherapy, Month 6, listed as Bim/Bim): 46.9%
Primary composite endpoint responders (≧1-grade GEA and ≧3-point ESQ Domain 2 improvement) ([1]; postchemotherapy, Month 6, listed as Bimatoprost): 46.9%
Primary composite endpoint responders (≧1-grade GEA and ≧3-point ESQ Domain 2 improvement) ([1]; postchemotherapy, Month 6, listed as bimatoprost): 46.9%
Responders with ≧2-grade increase in GEA score ([1]; postchemotherapy, Month 10, Veh/Bim (4 months after starting bimatoprost)): 50%
Primary composite endpoint responders (≧1-grade GEA and ≧3-point ESQ Domain 2 improvement) ([1]; postchemotherapy, Month 10, bimatoprost throughout): 54.2%
Responders with ≧2-grade increase in GEA score ([1]; postchemotherapy, Month 12, Veh/Bim): 52.9%
Primary composite endpoint responders (≧1-grade GEA and ≧3-point ESQ Domain 2 improvement) ([1]; postchemotherapy, Month 12, bimatoprost for 12 months (Bim/Bim)): 61.5%
Responders with ≧1-grade increase in GEA score [1, 5]: 90.6%
Responders with ≧3-point increase in ESQ Domain 2 [1, 5]: 63.5%
Responders with ≧2-grade increase in GEA score ([1]; postchemotherapy, Month 12, bimatoprost up to 12 months): 57.3%
Primary composite endpoint responders (≧1-grade GEA and ≧3-point ESQ Domain 2 improvement) ([1]; postchemotherapy, Month 12, vehicle first 6 months then bimatoprost (Veh/Bim)): 67.6%
ESQ Domain 2 mean change in total score from baseline ([1]; postchemotherapy, visit not stated (months 4 and 6 discussed)): 2.8
Upper eyelash length, mean % change from baseline ([2]; Month 4 (on bimatoprost)): 21.01%
Upper eyelash length, mean value ([2]; Month 4 (on bimatoprost)): 6.8 mm
Upper eyelash thickness, mean % change from baseline ([2]; Month 4 (on bimatoprost)): 73.7%
Upper eyelash thickness, mean value ([2]; Month 4 (on bimatoprost)): 1.2 mm^2
Upper eyelash darkness, mean % change from baseline ([2]; Month 4 (on bimatoprost)): −16.01%
Upper eyelash darkness, mean value ([2]; Month 4 (on bimatoprost)): 126.3 intensity units
Upper eyelash length, mean % change from baseline ([2]; Month 6 (on bimatoprost)): 25.70%
Upper eyelash length, mean value ([2]; Month 6 (on bimatoprost)): 7.1 mm
Upper eyelash thickness, mean % change from baseline ([2]; Month 6 (on bimatoprost)): 79.9%
Upper eyelash thickness, mean value ([2]; Month 6 (on bimatoprost)): 1.2 mm^2
Upper eyelash darkness, mean % change from baseline ([2]; Month 6 (on bimatoprost)): −14.89%
Upper eyelash darkness, mean value ([2]; Month 6 (on bimatoprost)): 128.0 intensity units
Upper eyelash length, mean % change from baseline [2, 6]: 6.46%
Upper eyelash length, mean value [2, 6]: 6.0 mm
Upper eyelash thickness, mean % change from baseline [2, 6]: 13.0%
Upper eyelash thickness, mean value [2, 6]: 0.8 mm^2
Upper eyelash darkness, mean % change from baseline [2, 6]: −3.97%
Upper eyelash darkness, mean value [2, 6]: 143.7 intensity units
Upper eyelash length, mean % change from baseline [2, 7]: 4.62%
Upper eyelash length, mean value [2, 7]: 5.9 mm
Upper eyelash thickness, mean % change from baseline [2, 7]: 15.9%
Upper eyelash thickness, mean value [2, 7]: 0.9 mm^2
Upper eyelash darkness, mean % change from baseline [2, 7]: −4.29%
Upper eyelash darkness, mean value [2, 7]: 143.6 intensity units
Upper eyelash length, mean percent change from baseline [2, 8]: 22.90%
Upper eyelash thickness, mean percent change from baseline [2, 8]: 95.90%
Upper eyelash length, mean percent change from baseline [2, 9]: 22.9 (177) %
Upper eyelash thickness, mean percent change from baseline [2, 9]: 95.9 (150) %
Upper eyelash darkness, mean percent change from baseline [2, 8]: −15.70%
Upper eyelash darkness, mean percent change from baseline [2, 9]: −15.7 (150) %
Upper eyelash length, mean percent change from baseline [2, 10]: 26.0 (177) %
Upper eyelash thickness, mean percent change from baseline [2, 10]: 91.4 (150) %
Upper eyelash darkness, mean percent change from baseline [2, 10]: −14.1 (150) %
Eyelash length, mean percent increase from baseline [2, 11]: 26.17%
Eyelash length, median percent increase from baseline [2, 11]: 22.4%
Increase in mean eyelash length from baseline [2, 11]: 1.44 mm
Eyelash length, mean percent increase from baseline [2, 12]: 25.86%
Eyelash length, median percent increase from baseline [2, 12]: 22.63%
